Source: US12320793B2, “Analysis method of 3-methyl-1-phenyl-2-pyrazolin-5-one active pharmaceutical ingredient, treatment for amyotrophic lateral sclerosis, inhibition of progression of amyotrophic lateral sclerosis, and method of producing medicament containing 3-methyl-1-phenyl-2-pyrazolin-5-one active pharmaceutical …” (MITSUBISHI TANABE PHARMA CORPORATION, priority 2018, dated 2025)
Entries after “also recorded” stand apart in the source; their conditions may differ. Blank lines part the entries; values can stand above or below the compound they belong to.

Tests used:
Type in all cases: physicochemical
[1] = Solubility of edaravone active pharmaceutical ingredient (EDVP) in liquids for dissolution
Description: The following liquids for dissolution (a) to (f) were used to prepare sample solutions, and the dissolution states of the edaravone active pharmaceutical ingredient in those solutions were investigated. Then, a liquid for dissolution that enabled to dissolve the edaravone active pharmaceutical ingredient was used to prepare a solution of phenylhydrazine, and the solution was measured using HPLC to check the peak shape of phenylhydrazine.
• (a) 0.1 mol/L hydrochloric acid test liquid • (b) 0.1 mol/L hydrochloric acid/acetonitrile (8:2) mixture • (c) 0.1 mol/L hydrochloric acid/acetonitrile (6:4) mixture • (d) 0.1 mol/L hydrochloric acid/acetonitrile (4:6) mixture • (e) 0.1 mol/L hydrochloric acid/acetonitrile (2:8) mixture • (f) 1 mol/L hydrochloric acid/acetonitrile (6:4) mixture Preparation of Sample Solutions
The edaravone active pharmaceutical ingredient weighed to about 0.10 g was dissolved in liquids for dissolution (a) to (f), and the solutions were adjusted exactly to 10 mLs to provide sample solutions.
Sample solutions were prepared with the following three liquids for dissolution. • 1. 0.1 mol/L hydrochloric acid/methanol (7:3) mixture • 2. 0.1 mol/L hydrochloric acid/methanol (6:4) mixture • 3. […]

[2] = as above; remark: listed apart in the source
[3] = Decomposition during storage of phenylhydrazine hydrochloride versus phenylhydrazine as standard substance (Test Example 1); settings: compared with phenylhydrazine
[4] = Stability in solutions of 0.1 mol/L hydrochloric acid/methanol (5:5) mixture by HPLC (Example 3); settings: 0.1 mol/L hydrochloric acid/methanol (5:5) compared with hydrochloric acid/acetonitrile (7:3) of Example 1
Source text: The stability of phenylhydrazine and/or 3-methyl-1-phenyl-2-pyrazolin-5-one in a solution was investigated provided that an organic solvent in a liquid for dissolution was changed from acetonitrile to methanol.
In accordance with the conditions of Example 1 other than the liquids for dissolution, the stability of phenylhydrazine and/or 3-methyl-1-phenyl-2-pyrazolin-5-one in the solutions was investigated.
Therefore, 0.1 mol/L hydrochloric acid/methanol (5:5) mixture was used to prepare the addition sample solution (edaravone active pharmaceutical ingredient: 0.10111 g, phenylhydrazine: 5 μL), the standard solution (phenylhydrazine hydrochloride: 13.154 mg), and the sample solution (edaravone active pharmaceutical ingredient: 0.10275 g), and the stability of the solutions was investigated.
The results of the stability study of phenylhydrazine in the solution of 0.1 mol/L hydrochloric acid/methanol (5:5) mixture are shown in Table 7 and FIG. 7.

solubility of EDVP ([1]; (a) 0.1 mol/L hydrochloric acid test liquid, about 0.10 g to 10 mL): insoluble | solubility of EDVP ([1]; (b) 0.1 mol/L hydrochloric acid/acetonitrile (8:2) mixture, about 0.10 g to 10 mL): insoluble | solubility of EDVP ([1]; (c) 0.1 mol/L hydrochloric acid/acetonitrile (6:4) mixture, about 0.10 g to 10 mL): soluble | solubility of EDVP ([1]; (d) 0.1 mol/L hydrochloric acid/acetonitrile (4:6) mixture, about 0.10 g to 10 mL): soluble | solubility of EDVP ([1]; (e) 0.1 mol/L hydrochloric acid/acetonitrile (2:8) mixture, about 0.10 g to 10 mL): soluble | solubility of EDVP ([1]; (f) 1 mol/L hydrochloric acid/acetonitrile (6:4) mixture, about 0.10 g to 10 mL): soluble | solubility of EDVP ([1]; liquid for dissolution 3: 0.1 mol/L hydrochloric acid/methanol (5:5) mixture): soluble
Structure (SMILES): CC1=NN(c2ccccc2)C(=O)C1 [EDVP, 3-methyl-1-phenyl-2-pyrazolin-5-one]
solubility of EDVP ([2]; (g) 0.1 mol/L hydrochloric acid/acetonitrile (7:3) mixture, listed as edaravone active pharmaceutical ingredient): soluble; also recorded: dissolve completely

Structure (SMILES): Cl.NNc1ccccc1 [phenylhydrazine hydrochloride]
decomposition during storage [3]: less likely to decompose during storage

Structure (SMILES): NNc1ccccc1 [phenylhydrazine]
decomposition of phenylhydrazine in the solution [4]: tended to be faster decomposed | dissolution of phenylhydrazine ([2]; 0.1 mol/L hydrochloric acid/acetonitrile mixture (volume ratio 7:3)): dissolve completely
